{
  "source": "PubChem BioAssay AID608",
  "about": "(Sanford-Burnham Center for Chemical Genomics, 2007)",
  "molecular_target": "Peptidyl-prolyl cis-trans isomerase FKBP1A (Homo sapiens) (UniProt P62942)",
  "sequence (P62942 whole entry, looked up)": "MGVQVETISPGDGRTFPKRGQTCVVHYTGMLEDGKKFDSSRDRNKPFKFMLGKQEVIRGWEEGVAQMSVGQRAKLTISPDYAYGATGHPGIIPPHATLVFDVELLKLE",
  "test": "small-molecule binding to FKBP12 – biophysical, NMR detection (AID 608)",
  "settings": "purified FKBP12",
  "note": "The source made the active and inactive calls. The rule behind the calls is not given here.",
  "data": [
    {"smiles": "CC1SC(=NC(=O)c2ccncc2)NC1=O", "note": "(configuration not stated)", "values": [
      {"measurement": "Kd", "value": "> 4 mM (inactive)"}
    ]},
    {"smiles": "NC(=O)COc1ccccc1O", "values": [
      {"measurement": "Kd", "value": "> 4 mM (inactive)"}
    ]},
    {"smiles": "C[C@@H]1CC[C@@]2(OC1)OC1CC3C4CC=C5C[C@@H](O)CC[C@]5(C)C4CC[C@]3(C)C1[C@@H]2C", "note": "(some centres not stated)", "values": [
      {"measurement": "Kd", "value": "> 4 mM (inactive)"}
    ]},
    {"smiles": "COC(=O)[C@]1(C)CC[C@]2(C)CC[C@]3(C)C4=CCc5c(cc(O)c(O)c5C)[C@]4(C)CC[C@@]3(C)C2C1", "note": "(some centres not stated)", "values": [
      {"measurement": "Kd", "value": "> 4 mM (inactive)"}
    ]},
    {"smiles": "NC(=O)c1cn(-c2ccccc2)nc1-c1cccnc1", "values": [
      {"measurement": "Kd", "value": "> 4 mM (inactive)"}
    ]},
    {"smiles": "CCCCCCCCCCCCCCC(C(=O)OC)C(O)(CC(=O)OC)C(=O)OC", "note": "(configuration not stated)", "values": [
      {"measurement": "Kd", "value": "> 4 mM (inactive)"}
    ]},
    {"smiles": "O=C1CSC(=Nc2cccc(C(F)(F)F)c2)N1", "values": [
      {"measurement": "Kd", "value": "> 4 mM (inactive)"}
    ]},
    {"smiles": "CS(=O)(=O)Nc1ccccc1C(=O)c1ccccc1", "values": [
      {"measurement": "Kd", "value": "> 4 mM (inactive)"}
    ]},
    {"smiles": "c1ccc(Cc2nnc3sc(-c4cccnc4)nn23)cc1", "values": [
      {"measurement": "Kd", "value": "> 4 mM (inactive)"}
    ]},
    {"smiles": "CC(C)=NNC(=O)C(=O)NC(C)(C)C", "values": [
      {"measurement": "Kd", "value": "> 4 mM (inactive)"}
    ]},
    {"smiles": "OCC12COC3c4ccccc4C(OC1)N32", "note": "(configuration not stated)", "values": [
      {"measurement": "Kd", "value": "> 4 mM (inactive)"}
    ]},
    {"smiles": "CCCNC(=O)c1cnc2n(c1=O)CCS2", "values": [
      {"measurement": "Kd", "value": "> 4 mM (inactive)"}
    ]},
    {"smiles": "COC(=O)c1cncc(C(=O)OC)c1", "values": [
      {"measurement": "Kd", "value": "> 4 mM (inactive)"}
    ]},
    {"smiles": "C=CCc1ccc(OC(=O)c2ccccc2)c(OC)c1", "values": [
      {"measurement": "Kd", "value": "> 4 mM (inactive)"}
    ]},
    {"smiles": "NCc1ccc(-c2ccccn2)s1", "values": [
      {"measurement": "Kd", "value": "> 4 mM (inactive)"}
    ]},
    {"smiles": "COC(=O)c1c(OC)cc2c(c1C)Oc1c(Cl)c(OC(C)=O)c(Cl)c(C)c1C(=O)O2", "values": [
      {"measurement": "Kd", "value": "> 4 mM (inactive)"}
    ]},
    {"smiles": "S=C(c1cccnc1)N1CCOCC1", "values": [
      {"measurement": "Kd", "value": "> 4 mM (inactive)"}
    ]},
    {"smiles": "CN1CCN(S(=O)(=O)c2ccc(=O)[nH]c2)CC1", "values": [
      {"measurement": "Kd", "value": "> 4 mM (inactive)"}
    ]},
    {"smiles": "Cc1nnsc1C(=O)N(C)c1ccccc1", "values": [
      {"measurement": "Kd", "value": "> 4 mM (inactive)"}
    ]},
    {"smiles": "NCc1cccc2c1OCCCO2", "values": [
      {"measurement": "Kd", "value": "> 4 mM (inactive)"}
    ]},
    {"smiles": "O=C(O)c1cc(F)cc2c1OCOC2", "values": [
      {"measurement": "Kd", "value": "> 4 mM (inactive)"}
    ]},
    {"smiles": "O=C(NCc1ccccn1)c1ccc(Cl)cc1Cl", "values": [
      {"measurement": "Kd", "value": "> 4 mM (inactive)"}
    ]},
    {"smiles": "CC(C)=CCC/C(C)=C/CC/C(C)=C/CC/C(C)=C/CC/C(C)=C/CC/C(C)=C/CC/C(C)=C/CC/C(C)=C/CC/C(C)=C/CO", "values": [
      {"measurement": "Kd", "value": "> 4 mM (inactive)"}
    ]},
    {"smiles": "CC1(NC(=O)NCc2ccccc2)CCS(=O)(=O)C1", "note": "(configuration not stated)", "values": [
      {"measurement": "Kd", "value": "> 4 mM (inactive)"}
    ]},
    {"smiles": "O=C(O)C1CC(=O)N(Cc2cccs2)C1", "note": "(configuration not stated)", "values": [
      {"measurement": "Kd", "value": "> 4 mM (inactive)"}
    ]},
    {"smiles": "Cc1cc(NC(=O)c2cc(C)on2)no1", "values": [
      {"measurement": "Kd", "value": "> 4 mM (inactive)"}
    ]},
    {"smiles": "CC(=O)Oc1cc2c(C(C)=O)coc2c2ccccc12", "values": [
      {"measurement": "Kd", "value": "> 4 mM (inactive)"}
    ]},
    {"smiles": "CN(C)c1ccc(/C=C2/NC(=S)NC2=O)cc1", "values": [
      {"measurement": "Kd", "value": "> 4 mM (inactive)"}
    ]},
    {"smiles": "O=C(O)c1ccc2c(c1)OCO2", "values": [
      {"measurement": "Kd", "value": "> 4 mM (inactive)"}
    ]},
    {"smiles": "CCOC(=O)c1c(C)nc2ccccn12", "values": [
      {"measurement": "Kd", "value": "> 4 mM (inactive)"}
    ]},
    {"smiles": "O=C(Nc1ccncc1)c1c(F)cccc1F", "values": [
      {"measurement": "Kd", "value": "> 4 mM (inactive)"}
    ]},
    {"smiles": "NC1=NC(=O)/C(=C\\c2cccnc2)S1", "values": [
      {"measurement": "Kd", "value": "> 4 mM (inactive)"}
    ]},
    {"smiles": "O=C1Cc2ccccc2N1c1ccccc1", "values": [
      {"measurement": "Kd", "value": "> 4 mM (inactive)"}
    ]},
    {"smiles": "COc1ccc2cnn(-c3ccccc3)c(=O)c2c1OC", "values": [
      {"measurement": "Kd", "value": "> 4 mM (inactive)"}
    ]},
    {"smiles": "Cn1c(=O)[nH]c(=O)c2c1ncn2CCN1CCCCC1", "values": [
      {"measurement": "Kd", "value": "> 4 mM (inactive)"}
    ]},
    {"smiles": "COC(=O)C(O)[C@@H]1C2(C)C(=O)[C@@H](CC3=C4CC(=O)O[C@@H](c5ccoc5)[C@]4(C)CCC32)[C@H](OC(C)=O)C1(C)C", "note": "(some centres not stated)", "values": [
      {"measurement": "Kd", "value": "> 4 mM (inactive)"}
    ]},
    {"smiles": "Cc1n[nH]c(C)c1NC(=O)c1cccc(F)c1", "values": [
      {"measurement": "Kd", "value": "> 4 mM (inactive)"}
    ]},
    {"smiles": "Cc1nc2nc(Cc3ccccc3)nn2c(C)c1Cl", "values": [
      {"measurement": "Kd", "value": "> 4 mM (inactive)"}
    ]},
    {"smiles": "CC(C)c1ccc(SCC(=O)N2CCOCC2C(=O)O)cc1", "note": "(configuration not stated)", "values": [
      {"measurement": "Kd", "value": 0.426, "unit": "mM"}
    ]},
    {"smiles": "Cc1cc(C)cc(NS(=O)(=O)N2CCOCC2)c1", "values": [
      {"measurement": "Kd", "value": "inactive"}
    ]},
    {"smiles": "S=c1nc2c(n[nH]1)[nH]c1ccccc12", "values": [
      {"measurement": "Kd", "value": "> 4 mM (inactive)"}
    ]},
    {"smiles": "COc1cc2c(cc1OC)[C@@H]1C(=O)c3ccc4c(c3O[C@@H]1CO2)CC(C(C)C)O4", "note": "(some centres not stated)", "values": [
      {"measurement": "Kd", "value": "> 4 mM (inactive)"}
    ]},
    {"smiles": "Nc1ccc(OC(F)(F)F)cc1", "values": [
      {"measurement": "Kd", "value": "> 4 mM (inactive)"}
    ]},
    {"smiles": "CC1CN=C(Nc2ccccc2)S1", "note": "(configuration not stated)", "values": [
      {"measurement": "Kd", "value": "> 4 mM (inactive)"}
    ]},
    {"smiles": "CC(=O)NCS(=O)(=O)c1ccc(C)cc1", "values": [
      {"measurement": "Kd", "value": "> 4 mM (inactive)"}
    ]},
    {"smiles": "CC(=O)Oc1ccc(O)cc1", "values": [
      {"measurement": "Kd", "value": "> 4 mM (inactive)"}
    ]},
    {"smiles": "NC(=O)c1cccc(Cl)n1", "values": [
      {"measurement": "Kd", "value": "> 4 mM (inactive)"}
    ]},
    {"smiles": "Cc1sc2nc(SC3CCOC3=O)[nH]c(=O)c2c1C", "note": "(configuration not stated)", "values": [
      {"measurement": "Kd", "value": "> 4 mM (inactive)"}
    ]},
    {"smiles": "Cc1ccc(C(=O)n2cnnc2N)cc1C", "values": [
      {"measurement": "Kd", "value": "> 4 mM (inactive)"}
    ]},
    {"smiles": "O=C(CC1CCCCC1)N1CCN(c2ccccn2)CC1", "values": [
      {"measurement": "Kd", "value": "> 4 mM (inactive)"}
    ]},
    {"smiles": "Cc1ccc(OCC(=O)n2cnnc2N)c(C)c1", "values": [
      {"measurement": "Kd", "value": "> 4 mM (inactive)"}
    ]},
    {"smiles": "Cc1ccc(OCC(=O)N2CCOCC2)cc1C", "values": [
      {"measurement": "Kd", "value": "inactive"}
    ]},
    {"smiles": "NC(=O)CN1CCC(c2nc3ccccc3[nH]2)CC1", "values": [
      {"measurement": "Kd", "value": "> 4 mM (inactive)"}
    ]},
    {"smiles": "Cc1cc(OCC(=O)N2CCOCC2)c(C(C)C)cc1Cl", "values": [
      {"measurement": "Kd", "value": "inactive"}
    ]},
    {"smiles": "Cc1cc(C(=O)Nc2ccc3c(c2)OCO3)cs1", "values": [
      {"measurement": "Kd", "value": "> 4 mM (inactive)"}
    ]},
    {"smiles": "CN(C)S(=O)(=O)Nc1ccc(Br)cc1F", "values": [
      {"measurement": "Kd", "value": "> 4 mM (inactive)"}
    ]},
    {"smiles": "COc1ccc(/C=C2/C(=O)N=C(N)N2C)cc1OC", "values": [
      {"measurement": "Kd", "value": "> 4 mM (inactive)"}
    ]}
  ]
}
